Source: publication PMC3723632, “A Multi-targeted Drug Candidate with Dual Anti-HIV and Anti-HSV Activity” (PLoS Pathogens, 2013)
Values after ≈ are worked out from the molar mass of the structure shown. Where two headings read alike, the source gives them in different places.

What was measured:
HSV-2 (G strain) = assay: Pre-treatment of PHK cell cultures, HSV-2 infection (CPE)
Method: (§2) The HSV-induced cytopathic effect (CPE) was evaluated in HSV-infected HEL and PHK cultures as described [44], [48].

HIV-2(ROD) = assay: Anti-HIV-2 activity in CD4+ T-lymphocyte CEM cell cultures; type: cell-based; settings: Human immunodeficiency virus 2, CCRF-CEM; HIV-2(ROD), CEM, virus-induced cytopathicity; read-out: EC50
Source text: (§1) Human CD4 ^+ T-lymphocyte CEM cell cultures were inoculated with HIV-1 and HIV-2 and exposed to adefovir, tenofovir, or PMEO-DAPym. […]

HSV-1 (KOS strain) = assay: Pre-treatment of PHK cell cultures, HSV-1 infection (CPE)
Method: as §2

HIV-1(IIIB) = assay: Anti-HIV-1 activity in CD4+ T-lymphocyte CEM cell cultures; type: cell-based; settings: Human immunodeficiency virus 1, CCRF-CEM, virus-induced cytopathicity
Source text: as §1

HSV-2 (G) [1] = assay: HSV-2 replication in human ex vivo tonsillar (lymphoid) tissue, viral DNA; type: cell-based
Source text: Figure 5 Suppression of HSV-2 in infected human ex vivo tonsillar tissue by adefovir and PMEO-DAPym. Blocks of human tonsillar tissue were inoculated ex vivo with HSV-2 (G) and treated or not with adefovir or PMEO-DAPym. We monitored HSV-2 (G) replication by measuring viral DNA in culture media at different times throughout the culture period. Presented are means ± SEM of cumulative HSV-2 (G) replication in tissues from two to six donors. For each donor, data represent pooled viral release from 27 tissue blocks.
Figure 7 Suppression of HSV-2 in single-infected and HIV-1 co-infected human ex vivo tonsillar tissue by adefovir and PMEO-DAPym. Panels A and B: Blocks of human tonsillar tissue from five different donors were co-inoculated ex vivo with HSV-2 (G) and HIV-1 (LAI) and treated or not with adefovir or PMEO-DAPym (1 µg/ml). For tissue from each donor, we monitored replication of both viruses by evaluating their accumulation in the culture media bathing 27 tissue blocks at different times throughout the culture. We evaluated HIV-1 replication by measuring p24gag and HSV-2 (G) replication by measuring HSV-2 viral DNA. Panel A: Presented are kinetics of HSV-2 (G) and HIV-1 (LAI) replication (insert). Each point represents the mean ± SEM of viral replication in tissues from five donors. Panel B: Presented are means ± SEM of cumulative HSV-2 (G) and HIV-1 (LAI) replication (insert).
Human tonsillar tissues were obtained from patients undergoing routine tonsillectomy at the Children's National Medical Center (Washington, DC) under IRB-approved protocol. Cervical tissues were obtained through the National Disease Research Interchange (NDRI, Philadelphia, PA). Tissues were dissected into blocks of about 2×2×2 mm and placed onto collagen sponge gels in culture medium at the air-liquid interface as described earlier. For tonsillar tissue for each experimental condition, 27 tissue blocks (9 blocks/well filled with 3 ml of medium) were inoculated with HSV-1 (strain F) or HSV-2 (strains G and MS). In coinfection experiments, tissue blocks were sequentially infected with HSV-2 (G) and HIV-1 (IIIB) (obtained from the Rush University Virology Quality Assurance Laboratory, Chicago, IL). Drugs (adefovir and PMEO-DAPym) were added to the culture medium 12 h prior to viral infection and replenished at each culture medium change.
For cervico-vaginal tissue, 16 blocks were infected by immersion in HSV-2G-containing medium and maintained on the gelfoam rafts. Adefovir was added at the time of infection and replenished at each culture medium change. HSV replication was evaluated from the release of viral DNA into the culture medium as measured with quantitative real-time PCR [18]. We evaluated HIV-1 replication from the release of p24 capsid antigen using a bead-based assay.

HSV-2 (G) [2] = assay: HSV-2 infection of primary monocyte/macrophage (M/M) cultures; type: cell-based
Method: We obtained human PBMC from the blood of healthy seronegative donors using Ficoll–Hypaque density gradient centrifugation. The PBMC were resuspended in RPMI 1640 medium supplemented with 20% heat-inactivated serum and then seeded into 48-well plates (1.8×10^6 cells/well). M/M were separated by adherence onto plastic. After 5 days, non-adherent cells were carefully removed by repeated gentle washings with warm medium, and adherent M/M were cultured for an additional 3 days to mature and to form a monolayer. M/M were estimated to be 10^5 cells/well at the time of infection. […]. Similarly, macrophage cultures were treated with the same concentrations of adefovir and tenofovir. Macrophage cultures were then infected with HSV-2 (G) (100 TCID50) in the presence of the compounds. After 2 h of adsorption, the cultures were extensively washed to remove any residual virus particles. Fresh complete medium and compounds, at the established concentrations, were then added to the cultures. Appropriate positive (infected but not treated) and mock-infected negative (uninfected and untreated) M/M controls were run for each experiment as well. All assays were performed in triplicate. […] We determined the amount of infectious virus in the supernatants 5–6 days after infection using the cytopathic effect assay. Tenfold serially diluted supernatants were added to confluent monolayers of Vero cells in 96-well plates (100 µl/well, 6 parallel wells). […] The titers of virus produced were calculated according to the Reed and Muench method and expressed as 50% tissue culture infective dose per mL (TCID50/mL).

In the case of `Nc1nc2c(ncn2COCCO)c(=O)[nH]1` [Acyclovir, 9-(2-hydroxyethyloxymethyl)guanine], the EC50 (HSV-2 (G strain); Human alphaherpesvirus 2, read-out: 50% effective concentration, PHK, HSV-2 G, +2 h to 72 h (control, drug present whole incubation)) is reported as 0.41 ± 0.13 µg/mL (≈ 1.82 µM), the EC50 (HSV-2 (G strain); Human alphaherpesvirus 2, read-out: 50% effective concentration, PHK, HSV-2 G, pretreatment −2.5 h to 0 h) is reported as 50 µg/mL (≈ 222 µM) and the EC50 (HSV-2 (G strain); Human alphaherpesvirus 2, read-out: 50% effective concentration, PHK, HSV-2 G, pretreatment −6 h to 0 h) is reported as greater than 50 µg/mL. For the same molecule, the EC50 (HSV-2 (G strain); Human alphaherpesvirus 2, read-out: 50% effective concentration, PHK, HSV-2 G, pretreatment −18 h to 0 h) was greater than 50 µg/mL, the EC50 (HIV-2(ROD)) was greater than 100 µg/mL and the EC50 (HSV-1 (KOS strain); Human alphaherpesvirus 1, read-out: 50% effective concentration, PHK, HSV-1 KOS, +2 h to 72 h (control, drug present whole incubation)) was 0.33 ± 0.25 µg/mL (≈ 1.47 µM). For the same molecule, the EC50 (HSV-1 (KOS strain); Human alphaherpesvirus 1, read-out: 50% effective concentration, PHK, HSV-1 KOS, pretreatment −2.5 h to 0 h) was greater than 50 µg/mL, the EC50 (HSV-1 (KOS strain); Human alphaherpesvirus 1, read-out: 50% effective concentration, PHK, HSV-1 KOS, pretreatment −6 h to 0 h) was greater than 50 µg/mL and the EC50 (HSV-1 (KOS strain); Human alphaherpesvirus 1, read-out: 50% effective concentration, PHK, HSV-1 KOS, pretreatment −18 h to 0 h) was greater than 50 µg/mL. The EC50 (HIV-1(IIIB)) was greater than 100 µg/mL, the inhibition at 0.3 µg/mL (HSV-2 (G) [1]; Human alphaherpesvirus 2, human lymphoid tissue ex vivo, 0.3 µg/mL, read-out: Inhibition of viral replication (% to control)) was 99.9% and the inhibition at 3 µg/mL (HSV-2 (G) [1]; Human alphaherpesvirus 2, human lymphoid tissue ex vivo, 3 µg/mL, read-out: Inhibition of viral replication (% to control)) was greater than 99%. The “HSV-2 DNA copies” value (HSV-2 (G) [1]; human lymphoid tissue ex vivo, 0.3 µg/mL) was 1.69 e+5 copies, the “HSV-2 DNA copies” value (HSV-2 (G) [1]; human lymphoid tissue ex vivo, 3 µg/mL) was 2.83 e+4 copies and the “Inhibition of viral replication (% to control)” value (HSV-2 (G) [1]; human lymphoid tissue ex vivo, 3 µg/mL, listed as ACV) was 99.98%. The “Cytopathicity (CPE) on macrophages 6 days after infection % CPE” value (from here on “Cytopathicity (CPE) … after infection % CPE”) (HSV-2 (G) [2]; 0.000025 µg/ml) was 75%, the “Virus production by HSV2-infected macrophages 6 days after infection (CPE reduction)” value (“Virus production … (CPE reduction)” below) (HSV-2 (G) [2]; 0.000025 µg/ml) was 1.3×10^4 TCID50/ml and the “Cytopathicity (CPE) … after infection % CPE” value (HSV-2 (G) [2]; 0.000128 µg/ml) was 40%. For the same molecule, the “Virus production … (CPE reduction)” value (HSV-2 (G) [2]; 0.000128 µg/ml) was 7.2×10^3 TCID50/ml, the “Cytopathicity (CPE) … after infection % CPE” value (HSV-2 (G) [2]; 0.00064 µg/ml) was 10% and the “Virus production … (CPE reduction)” value (HSV-2 (G) [2]; 0.00064 µg/ml) was 3.5×10^2 TCID50/ml. For the same molecule, the “Virus production … (CPE reduction)” value (HSV-2 (G) [2]; 0.003 µg/ml) was “No virus”, the “Virus production … (CPE reduction)” value (HSV-2 (G) [2]; 0.016 µg/ml) was “No virus” and the “Virus production … (CPE reduction)” value (HSV-2 (G) [2]; 0.08 µg/ml) was “No virus”. The inhibition at 25 pg/mL (HSV-2 (G) [2]; Human alphaherpesvirus 2, 144 h, 0.000025 µg/ml, M/M, day 6, read-out: Inhibition of viral replication (% to control)) was 7.2%, the inhibition at 0.000128 µg/mL (HSV-2 (G) [2]; Human alphaherpesvirus 2, 144 h, 0.000128 µg/ml, M/M, day 6, read-out: Inhibition of viral replication (% to control)) was 49% and the inhibition at 0.00064 µg/mL (HSV-2 (G) [2]; Human alphaherpesvirus 2, 144 h, 0.00064 µg/ml, M/M, day 6, read-out: Inhibition of viral replication (% to control)) was 97%. The inhibition at 0.003 µg/mL (HSV-2 (G) [2]; Human alphaherpesvirus 2, 144 h, 0.003 µg/ml, M/M, day 6, read-out: Inhibition of viral replication (% to control)) was 100%, the inhibition at 0.016 µg/mL (HSV-2 (G) [2]; Human alphaherpesvirus 2, 144 h, 0.016 µg/ml, M/M, day 6, read-out: Inhibition of viral replication (% to control)) was 100% and the inhibition at 0.08 µg/mL (HSV-2 (G) [2]; Human alphaherpesvirus 2, 144 h, 0.08 µg/ml, M/M, day 6, read-out: Inhibition of viral replication (% to control)) was 100%. For the same molecule, the EC50 (HSV-2 (G) [2]; Human alphaherpesvirus 2, HSV-2 (G), human monocyte/macrophages) was 0.13 ± 0.015 µg/mL (≈ 0.577 µM).
